In brackets after ≈: the same amount, converted by molar mass.
Biological target: T1, PI3Kδ (recombinant GST-tagged PIK3CD co-expressed with PIK3R1, p85α) (Homo sapiens, UniProt O00329)
T1 construct: The protein is full length and co-expressed with untagged PIK3R1; GST; purchased Invitrogen PV5274
Experiment: modified PIK3CD Adapta TR-FRET kinase assay (PI3Kδ inhibition)
Assay type: biochemical
Settings: 2 μM ATP, 50 μM PIP2, room temperature, 1 hour
Experimental: The activity of compounds as PI3Kδ inhibitors may be determined by a variety of methods, including in vitro and in vivo methods. The following in vitro assay measures a test compound's ability to inhibit PI3Kδ-mediated phosphorylation of PIP2 and ATP.
Recombinant GST-tagged PIK3CD is purchased from Invitrogen (Part Number: PV5274). The protein is full length and co-expressed with untagged PIK3R1, phosphoinositide-3-kinase regulatory subunit 1 (p85α). The protein is stored at −20° C. in 50 mM TRIS (pH 7.5), 150 mM NaCl, 0.5 mM EDTA, 0.02% Triton® X-100, 2 mM DTT, and 50% glycerol.
A modified PIK3CD Adapta® assay (Invitrogen, Carlsbad, Calif.) is used to measure PI3Kδ inhibition of the example compounds. The assay has two phases. In the first phase, kinase reaction components, which include the enzyme (PIK3CD), substrates (PIP2, ATP), test compound (inhibitor), and assay buffer are added to each well, and the reaction is allowed to incubate for a pre-determined period of time. After reaction, a detection solution composed of a Eu (europium)-labeled anti-ADP antibody, Alexa Fluor® 647-labeled ADP tracer, and EDTA (to stop the kinase reaction) is added to each assay well. In this second phase, ADP formed by the kinase reaction displaces the Alexa Fluor® 647-labeled ADP tracer from the antibody, resulting in a decrease in time-resolved fluorescence resonance energy transfer (TR-FRET) signal. In the presence of the inhibitor, the amount of ADP formed by the kinase reaction is reduced, and the resulting intact antibody-tracer interaction maintains a high TR-FRET signal.
The assay uses black Greiner® 384-well plates (784076). The reaction buffer contains 50 mM Hepes (pH 7.5), 3 mM MgCl2, 1 mM EGTA, 100 mM NaCl, 0.03% CHAPS; 2 mM DTT is added fresh prior to each experiment. Enzyme (4 μL, estimated 1.5 nM in buffer) is first added to the wells of the plate. Next, test compounds (2 μL) from a source plate (5% dilution plate) are introduced into the wells. The final DMSO concentration in each assay well is 1%. […] Other wells contain test compounds serially diluted across the plate 11 times for a total of 12 data points. The kinase reactions are carried out at room temperature and are initiated by the addition of 4 μL of solution containing 2 μM ATP and 50 μM PIP2. Each reaction is stopped after 1 hour±10 minutes via addition of […], which contains a final assay concentration of 3 nM Alexa Fluor® 647-labeled ADP tracer, 2 nM Eu-anti-ADP Antibody, and 10 mM EDTA. After allowing the solutions to equilibrate for 30±10 minutes, a PHERAstar plate reader is used to excite the Eu donor (at 337 nm) and to detect emission from the Alexa Fluor® 647 at 665 nm. This emission signal is referenced or “ratioed” to the emission from Eu at 620 nm. The emission ratio (665 nm/620 nm) from each well is collected and converted to percent conversion using a standard curve for the assay conditions: % conversion=B*(C+A−emission ratio)/(emission ratio−C), where “A” and “C” are the maximum and minimum values of the emission ratio obtained from the standard curve of emission ratio vs. % conversion (ATP-ADP); “B” is the emission ratio corresponding to the % conversion at the EC50 value for the ADP Tracer-Eu anti-ADP antibody complex. The percent inhibition for a given inhibitor concentration is computed from % conversion for the reaction and for the positive and negative controls. Corresponding IC50 values (molar concentration at 50% inhibition) are calculated by non-linear curve fitting of the compound concentrations and values of percent inhibition to the standard IC50 equation.

T1 sequence (O00329 whole entry): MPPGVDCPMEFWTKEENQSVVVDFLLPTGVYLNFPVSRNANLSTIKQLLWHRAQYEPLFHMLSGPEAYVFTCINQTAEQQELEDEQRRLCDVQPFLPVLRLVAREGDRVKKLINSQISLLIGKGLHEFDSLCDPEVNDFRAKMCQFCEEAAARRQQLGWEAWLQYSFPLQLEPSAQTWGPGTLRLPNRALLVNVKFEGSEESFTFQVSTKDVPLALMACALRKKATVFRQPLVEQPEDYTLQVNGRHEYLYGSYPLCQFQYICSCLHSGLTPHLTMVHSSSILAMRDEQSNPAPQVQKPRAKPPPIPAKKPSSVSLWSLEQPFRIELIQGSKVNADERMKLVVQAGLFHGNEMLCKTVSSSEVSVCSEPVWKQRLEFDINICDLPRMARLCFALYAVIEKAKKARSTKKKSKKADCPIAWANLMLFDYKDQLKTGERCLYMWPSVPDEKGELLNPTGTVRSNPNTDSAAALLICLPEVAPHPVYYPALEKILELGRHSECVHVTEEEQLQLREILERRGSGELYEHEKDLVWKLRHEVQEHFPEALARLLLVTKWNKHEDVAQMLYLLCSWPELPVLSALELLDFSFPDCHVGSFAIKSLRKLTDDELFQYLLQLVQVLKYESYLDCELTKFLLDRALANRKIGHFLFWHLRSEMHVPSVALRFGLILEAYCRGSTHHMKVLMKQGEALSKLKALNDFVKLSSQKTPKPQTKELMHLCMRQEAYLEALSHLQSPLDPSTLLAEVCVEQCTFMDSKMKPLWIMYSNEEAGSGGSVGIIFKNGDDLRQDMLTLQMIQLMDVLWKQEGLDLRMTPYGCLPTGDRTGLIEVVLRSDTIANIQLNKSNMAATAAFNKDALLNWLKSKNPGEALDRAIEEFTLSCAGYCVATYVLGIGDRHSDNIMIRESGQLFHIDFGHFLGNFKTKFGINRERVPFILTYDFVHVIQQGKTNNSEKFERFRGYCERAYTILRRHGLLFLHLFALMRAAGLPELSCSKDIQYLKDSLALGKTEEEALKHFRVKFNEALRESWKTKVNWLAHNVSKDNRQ
T1 sequence (P27986 whole entry partner): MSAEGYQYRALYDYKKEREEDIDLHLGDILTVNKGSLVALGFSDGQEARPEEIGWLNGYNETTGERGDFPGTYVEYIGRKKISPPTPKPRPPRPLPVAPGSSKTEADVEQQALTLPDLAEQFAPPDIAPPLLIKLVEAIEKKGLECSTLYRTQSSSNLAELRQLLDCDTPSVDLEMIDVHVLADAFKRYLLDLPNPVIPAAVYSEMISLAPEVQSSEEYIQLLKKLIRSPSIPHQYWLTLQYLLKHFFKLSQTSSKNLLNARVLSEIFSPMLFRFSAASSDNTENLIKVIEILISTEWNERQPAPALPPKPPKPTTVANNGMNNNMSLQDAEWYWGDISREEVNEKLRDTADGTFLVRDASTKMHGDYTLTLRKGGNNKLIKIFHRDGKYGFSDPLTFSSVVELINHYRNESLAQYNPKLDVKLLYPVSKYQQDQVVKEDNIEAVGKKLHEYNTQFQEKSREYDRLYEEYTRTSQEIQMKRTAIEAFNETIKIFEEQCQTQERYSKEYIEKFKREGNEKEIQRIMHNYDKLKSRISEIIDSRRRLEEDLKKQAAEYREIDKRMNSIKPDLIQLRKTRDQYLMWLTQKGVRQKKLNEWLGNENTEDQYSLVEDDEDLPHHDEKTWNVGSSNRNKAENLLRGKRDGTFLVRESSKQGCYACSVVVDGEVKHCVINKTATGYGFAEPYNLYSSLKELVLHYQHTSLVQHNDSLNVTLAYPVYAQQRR

IC50 [nM]	Molecule
0.6	4-((S)-1-(6-((1S,4S)-2,5-Diazabicyclo[2.2.1]heptan-2-yl)-1-methyl-1H-pyrrolo[3,2-b]pyridin-5-yl)ethylamino)-2-amino-6-methylpyrimidine-5-carbonitrile [Example 14]
1.7	Cc1nc(N)nc(N[C@@H](C)c2nc3ccn(C)c3cc2C2CCC(N)CC2)c1C#N (mixture of isomers) [Example 18, (S)-2-Amino-4-((1-(6-(4-aminocyclohexyl)-1-methyl-1H-pyrrolo[3,2-b]pyridin-5-yl)ethyl)amino)-6-methylpyrimidine-5-carbonitrile]
2.9	Cc1nc(N)nc(N[C@@H](C)c2nc3ccn(C)c3cc2N2CCC[C@@H](N)C2)c1C#N (single isomer, unassigned) [Example 4]
5.4	Cc1nc(N)nc(N[C@@H](C)c2nc3ccn(C)c3cc2N2CCC[C@H](N)C2)c1C#N (single isomer, unassigned) [Example 5]
4.2	Cc1nc(N)nc(N[C@@H](C)c2nc3ccn(C)c3cc2N2CC[C@@H](N)C2)c1C#N (single isomer, unassigned) [Example 7]
2.6	Cc1nc(N)nc(N[C@@H](C)c2nc3ccn(C)c3cc2N2CC[C@H](N)C2)c1C#N (single isomer, unassigned) [Example 8]
3.5	Cc1nc(N)nc(N[C@@H](C)c2nc3ccn(C)c3cc2[C@@H]2CCNC2)c1C#N (single isomer, unassigned) [Example 10]
1.3	Cc1nc(N)nc(N[C@@H](C)c2nc3ccn(C)c3cc2[C@H]2CCNC2)c1C#N (single isomer, unassigned) [Example 11]
5	Cc1nc(N)nc(N[C@@H](C)c2nc3ccn(C)c3cc2N2CCCNCC2)c1C#N [Example 2, (S)-4-(1-(6-(1,4-Diazepan-1-yl)-1-methyl-1H-pyrrolo[3,2-b]pyridin-5-yl)ethylamino)-2-amino-6-methylpyrimidine-5-carbonitrile]
5.6	CN[C@H]1CCN(c2cc3c(ccn3C)nc2[C@H](C)Nc2nc(N)nc(C)c2C#N)C1 [Example 3, 2-Amino-4-methyl-6-((S)-1-(1-methyl-6-((S)-3-(methylamino)pyrrolidin-1-yl)-1H-pyrrolo[3,2-b]pyridin-5-yl)ethylamino)pyrimidine-5-carbonitrile]
5	Cc1nc(N)nc(N[C@@H](C)c2nc3ccn(C)c3cc2N2CCN[C@@H](C)C2)c1C#N [Example 6, 2-Amino-4-methyl-6-((S)-1-(1-methyl-6-((S)-3-methylpiperazin-1-yl)-1H-pyrrolo[3,2-b]pyridin-5-yl)ethylamino)pyrimidine-5-carbonitrile]
2.2	Cc1nc(N)nc(N[C@@H](C)c2nc3ccn(C)c3cc2N2CCN[C@H](C)C2)c1C#N [Example 9, 2-Amino-4-methyl-6-((S)-1-(1-methyl-6-((R)-3-methylpiperazin-1-yl)-1H-pyrrolo[3,2-b]pyridin-5-yl)ethylamino)pyrimidine-5-carbonitrile]
1.4	Cc1nc(N)nc(N[C@@H](C)c2nc3ccn(C)c3cc2C2CCNCC2)c1C#N [Example 12, (S)-2-Amino-4-methyl-6-(1-(1-methyl-6-(piperidin-4-yl)-1H-pyrrolo[3,2-b]pyridin-5-yl)ethylamino)pyrimidine-5-carbonitrile]
1	C[C@H](Nc1nc(N)nc(N)c1C#N)c1nc2ccn(C)c2cc1N1CCNCC1 [Example 13, (S)-2,4-Diamino-6-(1-(1-methyl-6-(piperazin-1-yl)-1H-pyrrolo[3,2-b]pyridin-5-yl)ethylamino)pyrimidine-5-carbonitrile]
5.5	Cc1nc(N)nc(N[C@@H](C)c2nc3ccn(C)c3cc2NC2CCNCC2)c1C#N [Example 15, (S)-2-Amino-4-methyl-6-((1-(1-methyl-6-(piperidin-4-ylamino)-1H-pyrrolo[3,2-b]pyridin-5-yl)ethyl)amino)pyrimidine-5-carbonitrile]
2.4	Cc1nc(N)nc(N[C@@H](C)c2nc3ccn(C)c3cc2N(C)C2CNC2)c1C#N [Example 16, (S)-2-Amino-4-((1-(6-(azetidin-3-yl(methyl)amino)-1-methyl-1H-pyrrolo[3,2-b]pyridin-5-yl)ethyl)amino)-6-methylpyrimidine-5-carbonitrile]
8.5	Cc1nc(N)nc(N[C@@H](C)c2nc3ccn(C)c3cc2C2=CCC(N)CC2)c1C#N (stereo partly drawn) [Example 17, 2-Amino-4-(((1S)-1-(6-(4-aminocyclohex-1-en-1-yl)-1-methyl-1H-pyrrolo[3,2-b]pyridin-5-yl)ethyl)amino)-6-methylpyrimidine-5-carbonitrile]
0.8	CC[C@H](Nc1nc(N)nc(C)c1C#N)c1nc2ccn(C)c2cc1N1CCNCC1 [Example 19, (S)-2-Amino-4-methyl-6-((1-(1-methyl-6-(piperazin-1-yl)-1H-pyrrolo[3,2-b]pyridin-5-yl)propyl)amino)pyrimidine-5-carbonitrile]
220	CCc1nc(N)nc(N[C@@H](C)c2nc3ccn(C)c3cc2N2CCNCC2)c1C#N [Example 20, (S)-2-Amino-4-ethyl-6-((1-(1-methyl-6-(piperazin-1-yl)-1H-pyrrolo[3,2-b]pyridin-5-yl)ethyl)amino)pyrimidine-5-carbonitrile]

Molecule	IC50 [nM]
(S)-2-Amino-4-methyl-6-(1-(1-methyl-6-(piperazin-1-yl)-1H-pyrrolo[3,2-b]pyridin-5-yl)ethylamino)pyrimidine-5-carbonitrile [Example 1]	0.7

Test system: not listed separately
Experiment: Thermodynamic solubility assay in JP2
Settings: JP2 (Japan Pharmacopoeia 2nd fluid for dissolution), 37 °C, pH 6.8, aqueous buffer, thermodynamic from solid
Experimental: Testing media for both assays are prepared as follows: • JP1 (Japan Pharmacopoeia 1st fluid for dissolution): In a 1 L volumetric flask, dissolve 2.0 g sodium chloride in about 500 mL deionized water. Add 84 mL of 1M hydrochloric acid and dilute to volume with deionized water. Mix thoroughly. • JP2 (Japan Pharmacopoeia 2nd fluid for dissolution): In a 1 L volumetric flask dissolve 6.806 g of anhydrous potassium phosphate monobasic in about 500 mL of deionized water. Add 23.6 mL of 1M sodium hydroxide and dilute to volume with deionized water. Mix thoroughly. • GCDC (20-mM sodium glycochenodeoxycholate in JP2): In a 50 mL volumetric flask, dissolve 0.475 g of sodium glycochenodeoxycholate with ˜30 mL JP2. Dilute to volume with additional JP2. Mix thoroughly. • Other pH buffers between pH 2-6 can also be prepared as additional testing media.
About 3 mg of compound is weighed into an HPLC vial. Testing medium (0.5 mL) is then added to the compound vial. The vial is sealed with a screw-on cap and placed in an incubator set at 37° C. with orbital shaking at 150 RPM for overnight equilibration. At the end of equilibration, the final pH is measured, and whether the compound is totally dissolved (clear solution) or not (solid in vial) is recorded. Then the sample mixture is transferred to a centrifuge tube with filter insert (0.45 μm nylon filter) and centrifuge filtered. The filtrate is diluted appropriately (2 to 50× dilution) before HPLC analysis. A calibration standard is prepared by dissolving ˜5 mg of compound in diluent and q.s. to volume in a 20 mL volumetric flask. A separate QC standard is prepared at about the same concentration. The default diluent is 1:1 acetonitrile/water. Alternative diluents such as 1:1 DMA/water and other mixtures may also be used depending on the solubility behavior of the compound. The calibration response factor is calculated by dividing the standard peak area with standard concentration. The sample solubility in a test medium is calculated by dividing the sample peak area with the corresponding standard response factor and multiplied by sample dilution factor. The response factor from QC standard is also calculated and compared with calibration standard. If the response factors of the calibration and QC standard differ by more than 5%, new calibration and QC standards should be prepared and samples are reanalyzed with new standards.

solubility thermodynamic [µg/mL]	Molecule
20 (≈ 51 µM)	C[C@H](Nc1nc(N)nc(N)c1C#N)c1nc2ccn(C)c2cc1C1CCOCC1 [A, reference compound]
26 (≈ 66.1 µM)	C[C@H](Nc1nc(N)nc(N)c1C#N)c1nc2ccn(C)c2cc1N1CCOCC1 [B, reference compound]
1730 (≈ 4270 µM)	Cc1nc(N)nc(N[C@@H](C)c2nc3ccn(C)c3cc2N2CCN[C@@H](C)C2)c1C#N [Example 6, 2-Amino-4-methyl-6-((S)-1-(1-methyl-6-((S)-3-methylpiperazin-1-yl)-1H-pyrrolo[3,2-b]pyridin-5-yl)ethylamino)pyrimidine-5-carbonitrile]
150 (≈ 384 µM)	Cc1nc(N)nc(N[C@@H](C)c2nc3ccn(C)c3cc2C2CCNCC2)c1C#N [Example 12, (S)-2-Amino-4-methyl-6-(1-(1-methyl-6-(piperidin-4-yl)-1H-pyrrolo[3,2-b]pyridin-5-yl)ethylamino)pyrimidine-5-carbonitrile]

Same assay, conditions: solid free base, JP2 (Japan Pharmacopoeia 2nd fluid), 37° C., overnight equilibration

Molecule	Thermodynamic Solubility in JP2 [µg/mL]
(S)-2-Amino-4-methyl-6-(1-(1-methyl-6-(piperazin-1-yl)-1H-pyrrolo[3,2-b]pyridin-5-yl)ethylamino)pyrimidine-5-carbonitrile [Example 1]	2195

Test system: not given
Experiment: not given
Settings: pH 6.8

Thermodynamic Solubility in JP2 [µg/mL]	Molecule
>1830	4-((S)-1-(6-((1S,4S)-2,5-Diazabicyclo[2.2.1]heptan-2-yl)-1-methyl-1H-pyrrolo[3,2-b]pyridin-5-yl)ethylamino)-2-amino-6-methylpyrimidine-5-carbonitrile [Example 14]

Source: patent publication US9371321B2, “Azaindole derivatives” (Takeda Pharmaceutical Company Limited, priority 2014, dated 2016)
